# Data as given in patent publication US9708336B2, “Metallo-beta-lactamase inhibitors” (priority 2014, dated 2017).
# Where two headings read alike, the source gives them in different places.
# Legend:
# IMP-1 = IMP-1 (Serratia marcescens, UniProt P52699); assay: biochemical; format: biochemical; settings: read-out: IMP-1 IC50
# NDM-1 = NDM-1 (Klebsiella pneumoniae, UniProt C7C422); assay: biochemical; format: biochemical; settings: read-out: NDM-1 IC50
# VIM-1 = VIM-1 (Pseudomonas aeruginosa (strain ATCC 15692 / DSM 22644 / CIP 104116 / JCM 14847 / LMG 12228 / 1C / PRS 101 / PAO1), UniProt A0A0F7KYQ8); assay: Enzyme activity: determination of IC50, fluorescence assay with CCF2-FA substrate (VIM-1); format: biochemical
# [1] = system: Klebsiella pneumoniae expressing VIM-1 (IHMA599644); assay: Antibiotic potentiation activity: synergistic concentration (MITC95) with imipenem, OD600 growth; format: cell-based; settings: for Klebsiella pneumoniae expressing VIM-1 (IHMA 599644) MITC95: concentration giving 95% inhibition of bacterial growth; for Klebsiella pneumoniae MITC95: Klebsiella pneumoniae expressing VIM-1 (IHMA599644), 95% growth inhibition
# In short: (§1)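 Imipenem (4 μg/ml final; 1 μg/ml as an option) was combined with compound against isolates diluted 1:100 from saline suspensions into 1.1× CAMHB. Growth was assessed by absorbance at 22–24 h, 35 °C.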
# [2] = system: Escherichia coli expressing NDM-1 (CLB30005); assay: as above; format: cell-based; settings: for Escherichia coli expressing NDM-1 (CLB 30005) MITC95: concentration giving 95% inhibition of bacterial growth; for Escherichia coli MITC95: Escherichia coli expressing NDM-1 (CLB30005), 95% growth inhibition
# In short: as §1
# [3] = system: Serratia marcescens expressing IMP-1 (CL5741); assay: as above; format: cell-based; settings: for Serratia marcescens expressing IMP-1 (CL5741) MITC95: concentration giving 95% inhibition of bacterial growth; for Serratia marcescens MITC95: Serratia marcescens expressing IMP-1 (CL5741), 95% growth inhibition
# In short: as §1
# [4] = fluorescence assay with CCF2-FA substrate
# [5] = fluorescence assay with CCF2-FA substrate, read-out: VIM-1 IC50
# [6] = IMP-1 enzyme, CCF2-FA fluorescence assay
# [7] = NDM-1 enzyme, CCF2-FA fluorescence assay
# [8] = VIM-1 enzyme, CCF2-FA fluorescence assay, read-out: VIM-1 IC50
# [9] = VIM-1 IC50, fluorescence assay with CCF2-FA substrate
# Sequence of IMP-1 (P52699 whole entry, looked up): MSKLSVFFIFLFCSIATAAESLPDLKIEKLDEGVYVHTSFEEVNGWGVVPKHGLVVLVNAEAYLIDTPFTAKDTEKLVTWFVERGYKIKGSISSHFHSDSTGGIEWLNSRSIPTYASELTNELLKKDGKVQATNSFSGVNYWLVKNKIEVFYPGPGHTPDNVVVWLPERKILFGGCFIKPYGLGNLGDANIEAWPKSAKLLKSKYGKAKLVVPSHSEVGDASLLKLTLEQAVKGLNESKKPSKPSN
# Sequence of NDM-1 (C7C422 whole entry, looked up, species assumed): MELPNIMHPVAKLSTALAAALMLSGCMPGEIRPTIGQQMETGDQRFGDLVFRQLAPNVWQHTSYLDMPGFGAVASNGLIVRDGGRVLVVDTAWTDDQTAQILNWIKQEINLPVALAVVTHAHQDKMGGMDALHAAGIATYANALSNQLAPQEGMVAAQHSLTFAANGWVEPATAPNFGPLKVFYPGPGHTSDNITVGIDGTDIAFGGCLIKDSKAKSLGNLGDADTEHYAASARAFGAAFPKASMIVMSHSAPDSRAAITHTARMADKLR
Structure (SMILES),IC50 (IMP-1; [4]),IC50 (NDM-1; [4]),IC50 (VIM-1; [5]),Klebsiella pneumoniae expressing VIM-1 (IHMA 599644) MITC95 [1],Escherichia coli expressing NDM-1 (CLB 30005) MITC95 [2],Serratia marcescens expressing IMP-1 (CL5741) MITC95 [3],IC50 (IMP-1; [6]),IC50 (NDM-1; [7]),IC50 (VIM-1; [8]),Klebsiella pneumoniae MITC95 [1],Escherichia coli MITC95 [2],Serratia marcescens MITC95 [3],IC50 (VIM-1; [9]),"IC50 (VIM-1; VIM-1 IC50, VIM-1 enzyme, CCF2-FA fluorescence assay)"
"NS(=O)(=O)c1nccc(-c2cnc3[nH]ccc3c2)c1-c1nn[nH]n1 [Example 212, 4-(1H-pyrrolo[2,3-b]pyridin-5-yl)-3-(2H-tetrazol-5-yl)pyridine-2-sulfonamide]",415 nM,7.91 nM,13.1 nM,3.125 µM,0.3906 µM,18.75 µM,,,,,,,,
"COc1ccc(S(N)(=O)=O)c(-c2nn[nH]n2)c1 [Example 253, 4-Methoxy-2-(2H-tetrazol-5-yl)benzenesulfonamide]",,,,,,,46300 nM,440 nM,170000 nM,>200 µM,3.125 µM,>200 µM,,
"Cc1ccc(-c2cc(-c3cccnc3)cc(S(N)(=O)=O)c2-c2nn[nH]n2)cc1 [Example 293, 4′-methyl-5-(pyridin-3-yl)-2-(2H-tetrazol-5-yl)-[1,1′-biphenyl]-3-sulfonamide]",,,,,,,86.5 nM,1.02 nM,232 nM,>200 µM,1.953 µM,9.375 µM,,
"NS(=O)(=O)c1nccc(-c2ccc(C(=O)NC3CC3)cc2)c1-c1nnn[nH]1 [Example 185, N-Cyclopropyl-4-(2-sulfamoyl-3-(1H-tetrazol-5-yl)pyridin-4-yl)benzamide]",1480 nM,135 nM,2020 nM,>200 µM,2.344 µM,75 µM,,,,,,,,
"NS(=O)(=O)c1cccc(-c2ccnc(F)c2)c1-c1nn[nH]n1 [Example 46, 3-(2-fluoropyridin-4-yl)-2-(2H-tetrazol-5-yl)benzenesulfonamide]",302 nM,14.5 nM,99.1 nM,28.13 µM,0.5859 µM,25 µM,,,,,,,,
"NS(=O)(=O)c1cccc(-c2cncc(F)c2)c1-c1nn[nH]n1 [Example 83, 3-(5-fluoropyridin-3-yl)-2-(2H-tetrazol-5-yl)benzenesulfonamide]",520 nM,5.97 nM,,25 µM,0.3906 µM,50 µM,,,,,,,43.6 nM,
"COc1cccc(-c2cccc(S(N)(=O)=O)c2-c2nn[nH]n2)n1 [Example 37, 3-(6-methoxypyridin-2-yl)-2-(2H-tetrazol-5-yl)benzenesulfonamide]",1210 nM,26.4 nM,206 nM,200 µM,2.344 µM,50 µM,,,,,,,,
"NS(=O)(=O)c1cccc(-c2cccc(F)n2)c1-c1nn[nH]n1 [Example 36, 3-(6-fluoropyridin-2-yl)-2-(2H-tetrazol-5-yl)benzenesulfonamide]",790 nM,38.7 nM,219 nM,75 µM,1.953 µM,50 µM,,,,,,,,
"NS(=O)(=O)c1cccc(-c2ccn3cncc3c2)c1-c1nn[nH]n1 [Example 247, 3-(Imidazo[1,5-a]pyridin-7-yl)-2-(2H-tetrazol-5-yl)benzenesulfonamide]",,,,,,,479 nM,14.6 nM,116 nM,37.5 µM,0.3906 µM,25 µM,,
"NS(=O)(=O)c1cccc(-c2cn(S(=O)(=O)c3ccccc3)c3ncccc23)c1-c1nn[nH]n1 [Example 109, 3-[1-(phensulfonyl)-1H-pyrrolo[2,3-b]pyridin-3-yl]-2-(2H-tetrazol-5-yl)benzenesulfonamide]",38.9 nM,2.21 nM,,18.75 µM,12.5 µM,12.89 µM,,,,,,,0.637 nM,
"NS(=O)(=O)c1cccc(C(F)(F)F)c1-c1nnn[nH]1 [Example 256, 2-(1H-Tetrazol-5-yl)-3-(trifluoromethyl)benzenesulfonamide]",,,,,,,6260 nM,230 nM,8440 nM,>200 µM,0.7813 µM,100 µM,,
"Cc1sccc1-c1cccc(S(N)(=O)=O)c1-c1nn[nH]n1 [Example 108, 3-(2-methylthiophen-3-yl)-2-(2H-tetrazol-5-yl)benzenesulfonamide]",255 nM,5.8 nM,,37.5 µM,1.172 µM,18.75 µM,,,,,,,45 nM,
"CCOCc1ccc(-c2cccc(S(N)(=O)=O)c2-c2nnn[nH]2)cc1 [Example 397, 4′-(Ethoxymethyl)-2-(1H-tetrazol-5-yl)-[1,1′-biphenyl]-3-sulfonamide]",,,,,,,37.3 nM,3.93 nM,,>200 µM,3.906 µM,9.375 µM,,246 nM
"NS(=O)(=O)c1cccc(-c2ccc(-c3noc(C4CCNC4)n3)cc2)c1-c1nn[nH]n1 (stereo not drawn) [Example 250, 4′-(5-(pyrrolidin-3-yl)-1,2,4-oxadiazol-3-yl)-2-(2H-tetrazol-5-yl)-[1,1′-biphenyl]-3-sulfonamide]",,,,,,,109 nM,18 nM,195 nM,100 µM,0.7813 µM,4.688 µM,,
"C[C@H]1NC(=O)O[C@H]1c1ccc(-c2cccc(S(N)(=O)=O)c2-c2nnn[nH]2)cc1 [Example 23, 4′-[(4R,5S)-4-methyl-2-oxo-1,3-oxazolidin-5-yl]-2-(1H-tetrazol-5-yl)biphenyl-3-sulfonamide]",4.36 nM,0.637 nM,9.76 nM,50 µM,2.344 µM,2.344 µM,,,,,,,,
"NS(=O)(=O)c1cccc(C2CCCNC2)c1-c1nn[nH]n1 (stereo not drawn) [Example 175, 3-(piperidin-3-yl)-2-(2H-tetrazol-5-yl)benzenesulfonamide]",12400 nM,552 nM,3090 nM,75 µM,0.7813 µM,37.5 µM,,,,,,,,
"COC1CCN(C(=O)c2ccc(-c3cccc(S(N)(=O)=O)c3-c3nn[nH]n3)cc2)CC1 [Example 51, 4′-[(4-methoxypiperidin-1-yl)carbonyl]-2-(2H-tetrazol-5-yl)biphenyl-3-sulfonamide]",27.4 nM,2.74 nM,4190 nM,>200 µM,9.375 µM,31.25 µM,,,,,,,,
"NS(=O)(=O)c1cccc(-c2csc3ccccc23)c1-c1nn[nH]n1 [Example 96, 3-(1-benzothiophen-3-yl)-2-(2H-tetrazol-5-yl)benzenesulfonamide]",109 nM,1.31 nM,3.55 nM,25 µM,1.758 µM,15.63 µM,,,,,,,,
"NS(=O)(=O)c1cccc(-c2cccnc2)c1-c1nn[nH]n1 [Example 19, 3-pyridin-3-yl-2-(2H-tetrazol-5-yl)benzenesulfonamide]",1780 nM,24.5 nM,269 nM,50 µM,0.3906 µM,50 µM,,,,,,,,
"COc1ccc(-c2cccc(S(N)(=O)=O)c2-c2nn[nH]n2)cn1 [Example 78, 3-(6-methoxypyridin-3-yl)-2-(2H-tetrazol-5-yl)benzenesulfonamide]",202 nM,19.3 nM,147 nM,100 µM,0.7813 µM,18.75 µM,,,,,,,,
"NS(=O)(=O)c1cccc(-c2ccc3c(c2)CCCO3)c1-c1nn[nH]n1 [Example 85, 3-(3,4-dihydro-2H-chromen-6-yl)-2-(2H-tetrazol-5-yl)benzenesulfonamide]",94.6 nM,1.81 nM,28 nM,150 µM,2.344 µM,37.5 µM,,,,,,,,
